{
  "source": "patent US9381208B2",
  "about": "“Structure and use of 5′ phosphate oligonucleotides” (Rheinische Friedrich-Wilhelms-Universität, priority 2006, dated 2016)",
  "key": {"[1]": {"system": "PDC", "test": "IFN-α production in human PDC (ELISA)", "assay_type": "cell-based", "settings": "24 hours", "protocol": "Human PBMC were prepared from whole blood donated by young healthy donors by Ficoll-Hypaque density gradient centrifugation (Biochrom, Berlin, Germany). PDC were isolated by MACS using the blood dendritic cell Ag (BCDA)-4 dendritic cell isolation kit from Miltenyi Biotec (Bergisch-Gladbach, Germany). Briefly, PDC were labelled with anti-BDCA-4 Ab coupled to colloidal paramagnetic microbeads and passed through a magnetic separation column twice (LS column, then MS column; Miltenyi Biotec). The purity of isolated PDC (lineage-negative, MHC-II-positive and CD123-positive cells) was above 95%. Before isolation of monocytes, PDC were depleted by MACS (LD column; Miltenyi Biotec) and then monocytes were isolated using the monocyte isolation kit II (Miltenyi Biotec). […] PDC cultures were additionally supplemented with 10 ng/ml IL-3 (R&D Systems). […] Vero (African green monkey kidney) and HEK 293T (human embryonic kidney) cells were maintained in Dulbecco's modified Eagle's medium supplemented with antibiotics and 5% or 10% foetal calf serum, respectively. BSR cells were propagated in Glasgow minimal essential medium supplemented with 10% newborn calf serum, phosphate broth, amino acids and antibiotics.\nHuman IFN-α was assessed in cell culture supernatants using the IFN-α module set (Bender MedSystems, Graz, Austria). The murine IP-10 ELISA was from Biosource (Solingen, Germany), the murine IFN-[…] ELISA was from PBL Biomedical Laboratories (Piscataway, USA). All ELISA procedures were performed, according to manufacturers' recommendations."}, "[2]": {"system": "human primary monocytes", "test": "IFN-α production in human primary monocytes transfected with RNA (ELISA)", "assay_type": "cell-based", "settings": "200 ng RNA transfected, 24 hours, ELISA"}, "[3]": {"system": "PBMC", "test": "IFN-α in PBMC transfected with chemically synthesized 5′ triphosphate RNA (ELISA)", "assay_type": "cell-based, human", "settings": "oligonucleotide alone, 0.2 μg, 24 hours", "protocol": "PBMC were transfected with chemically synthesized single-strand oligonucleotides alone or together with their complementary antisense strand (AS) by using Lipofectamine and incubated in the presence or absence of chloroquine (Chl). CpG2331 was used as a positive and chloroquine-sensitive control for IFN-α induction in PBMC.\nThe isRNA9.2 (Hornung V et al. (2005) Nat Med 11(3):263-70) generated by in vitro transcription was used a positive control (IVT2-3PRNA). CpG2331 is a TLR9 ligand. PBMC (400,000 cells per well) were transfected with oligonucleotides by using Lipofectamin (0.5 μl, 0.2 μg oligonucleotide). Hybridization of complementary strands was performed by heating 4 μg total RNA in 20 μl of buffer (final 50 mM Tris/HCl pH7.5 100 mM NaCl) up to 70° C. followed by cooling down to 40° C. Chloroquine was used to block TLR-mediated nucleic acid recognition (2.5 μg/ml)."}},
  "data": [
    {"substance": "5′-pppAGCUUAACCUGUCCUUCAA-3′ [9.2s (IVT)]", "values": [
      {"measurement": "IFN-α production in PDC", "setting": "[1]", "value": "produced IFN-α"},
      {"measurement": "IFN-α production in monocytes", "setting": "[2]", "value": "strongly induced IFN-α production"},
      {"measurement": "IFN-α induction in PBMC", "setting": "[3]", "value": "induced IFN-α"}
    ]}
  ]
}
